Tests used:
Test in all cases: viability relative to DMSO control (fraction); higher = less drug effect (more viable cells)
Conditions in all cases: 48 h
[1] = system: primary DLBCL patient cells (S082)
How it was run: (§1)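 Using 384-well plates with compounds already plated at five concentrations, one well per concentration, 4 × 10^4 primary mononuclear tumour cells were added per well. Cells were Ficoll-isolated from blood or bone marrow or came from processed lymph node, fresh or cryopreserved. They were kept for 48 h at 37 °C and 5% CO2 in RPMI-1640 supplemented with penicillin/streptomycin, L-glutamine and human serum, and viability was read as CellTiter-Glo luminescence relative to the median of 16 inner DMSO wells.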

[2] = system: primary AML patient cells (S091)
How it was run: as §1

[3] = system: primary MCL patient cells (S041)
How it was run: as §1

[4] = system: primary B-PLL patient cells (S016)
How it was run: as §1

[5] = system: primary AML patient cells (S019)
How it was run: as §1

[6] = system: primary AML patient cells (S089)
How it was run: as §1

[7] = system: primary AML patient cells (S071)
How it was run: as §1

[8] = system: primary T-NHL patient cells (S058)
How it was run: as §1

[9] = system: primary CLL patient cells (S031)
How it was run: as §1

[10] = system: primary AML patient cells (S037)
How it was run: as §1

[11] = system: primary AML patient cells (S060)
How it was run: as §1

[12] = system: primary FL patient cells (S087)
How it was run: as §1

[13] = system: primary DLBCL patient cells (S049)
How it was run: as §1

[14] = system: primary AML patient cells (S011)
How it was run: as §1

[15] = system: primary AML patient cells (S085)
How it was run: as §1

[16] = system: primary ALL patient cells (S088)
How it was run: as §1

[17] = system: primary DLBCL patient cells (S076)
How it was run: as §1

## CS(=O)(=O)c1ccc(C(=O)Nc2ccc(Cl)c(-c3ccccn3)c2)c(Cl)c1 [Vismodegib]
[1]; 0.024 µM
  viability: 0.89
[1]; 0.12 µM
  viability: 0.939
[1]; 0.6 µM
  viability: 0.915
[1]; 3 µM
  viability: 0.933
[1]; 15 µM
  viability: 1.07
[2]; 0.024 µM
  viability: 0.973
[2]; 0.12 µM
  viability: 0.901
[2]; 0.6 µM
  viability: 0.997
[2]; 3 µM
  viability: 0.996
[2]; 15 µM
  viability: 0.893
[3]; 0.024 µM
  viability: 0.934
[3]; 0.12 µM
  viability: 0.973
[3]; 0.6 µM
  viability: 0.935
[3]; 3 µM
  viability: 0.969
[3]; 15 µM
  viability: 0.984
[4]; 0.024 µM
  viability: 0.862
[4]; 0.12 µM
  viability: 0.917
[4]; 0.6 µM
  viability: 0.921
[4]; 3 µM
  viability: 0.857
[4]; 15 µM
  viability: 0.92
[5]; 0.024 µM
  viability: 0.903
[5]; 0.12 µM
  viability: 0.997
[5]; 0.6 µM
  viability: 0.855
[5]; 3 µM
  viability: 0.873
[5]; 15 µM
  viability: 0.989
[6]; 0.024 µM
  viability: 0.87
[6]; 0.12 µM
  viability: 0.881
[6]; 0.6 µM
  viability: 0.93
[6]; 3 µM
  viability: 0.98
[6]; 15 µM
  viability: 0.642
[7]; 0.024 µM
  viability: 0.865
[7]; 0.12 µM
  viability: 0.899
[7]; 0.6 µM
  viability: 0.879
[7]; 3 µM
  viability: 0.906
[7]; 15 µM
  viability: 0.891
[8]; 0.024 µM
  viability: 0.913
[8]; 0.12 µM
  viability: 0.978
[8]; 0.6 µM
  viability: 0.953
[8]; 3 µM
  viability: 0.926
[8]; 15 µM
  viability: 1.01
[9]; 0.024 µM
  viability: 0.85
[9]; 0.12 µM
  viability: 0.996
[9]; 0.6 µM
  viability: 0.889
[9]; 3 µM
  viability: 0.867
[9]; 15 µM
  viability: 0.897
[10]; 0.024 µM
  viability: 0.927
[10]; 0.12 µM
  viability: 0.979
[10]; 0.6 µM
  viability: 0.91
[10]; 3 µM
  viability: 0.958
[10]; 15 µM
  viability: 1.02
[11]; 0.024 µM
  viability: 0.945
[11]; 0.12 µM
  viability: 0.966
[11]; 0.6 µM
  viability: 0.97
[11]; 3 µM
  viability: 0.971
[11]; 15 µM
  viability: 0.997
[12]; 0.024 µM
  viability: 0.918
[12]; 0.12 µM
  viability: 0.898
[12]; 0.6 µM
  viability: 0.914
[12]; 3 µM
  viability: 0.92
[12]; 15 µM
  viability: 0.929
[13]; 0.024 µM
  viability: 0.909
[13]; 0.12 µM
  viability: 0.939
[13]; 0.6 µM
  viability: 0.887
[13]; 3 µM
  viability: 0.878
[13]; 15 µM
  viability: 0.887
[14]; 0.024 µM
  viability: 0.771
[14]; 0.12 µM
  viability: 0.871
[14]; 0.6 µM
  viability: 1.11
[14]; 3 µM
  viability: 0.914
[14]; 15 µM
  viability: 0.92
[15]; 0.024 µM
  viability: 0.89
[15]; 0.12 µM
  viability: 0.925
[15]; 0.6 µM
  viability: 0.928
[15]; 3 µM
  viability: 0.952
[15]; 15 µM
  viability: 1.05
[16]; 0.024 µM
  viability: 0.762
[16]; 0.12 µM
  viability: 0.764
[16]; 0.6 µM
  viability: 0.779
[16]; 3 µM
  viability: 0.797
[16]; 15 µM
  viability: 0.862
[17]; 0.024 µM
  viability: 1.01
[17]; 0.12 µM
  viability: 1.07
[17]; 0.6 µM
  viability: 1.07
[17]; 3 µM
  viability: 1.05
[17]; 15 µM
  viability: 1.01
